Assay results as given in patent US8242280B2, “Fused ring heterocycle kinase modulators” (SGX Pharmaceuticals, Inc., priority 2007, dated 2012).

How the values were obtained:
Ba/F3 cells, ABL1 T315I = Ba/F3 cells, ABL1 T315I (Homo sapiens, UniProt P00519, T315I, cells depend on it); assay: 96-well XTT cell survival assay, Ba/F3 ABL1 T315I; assay type: cell-based; conditions: 72 hours, read-out: ABL1 T315I XTT [Ba/F3] IC50
Protocol: (§1) MV4-11 and THP cells were maintained in Iscove's Modified Dulbecco's Medium supplemented with 10% fetal bovine serum (FBS) and penicillin/streptomycin, Ba/F3 cells were maintained in RPMI 1640 supplemented with 10% FBS, penicillin/streptomycin and 5 ng/ml recombinant mouse IL-3.
(§2) Compounds were tested in the following assays in duplicate.
(§3) 96-well XTT assay: Cells (e.g. BaF3 315I, M351I, or E255K cells) were grown in growth media containing various concentrations of compounds (duplicates) on a 96-well plate for 72 hours at 37° C. The starting cell number was 5000-8000 cells per well and volume was 120 μl. At the end of the 72-hour incubation, 40 μl of XTT labeling mixture (50:1 solution of sodium 3′-[1-(phenylamino-carbonyl)-3,4-tetrazolium]-bis(4-methoxy-6-nitro)benzene sulfonic acid hydrate and Electron-coupling reagent: PMS (N-methyl dibenzopyrazine methyl sulfate) were added to each well of the plate. After an additional 2-6 hours of incubation at 37° C., the absorbance reading at 405 nm with background correction at 650 nm was measured with a spectrophotometer.

[1] = molecular target: T1, unphosphorylated T315I Abl kinase domain (Mus musculus, UniProt P00520, T315I); assay: c-Abl T315I 0P bioassay (pyruvate kinase/lactate dehydrogenase coupled enzyme assay); assay type: biochemical; conditions: zero phosphorylation state (0P), 10 μM ATP, read-out: AbI T315I 0P IC50
T1 construct: purified and unphosphorylated T315I Abl kinase domain; made in house; host or cells: E. coli BL21(DE3) (Codon+RIL or pSA0145 strain)
T1 sequence (P00520 242-493 T315I limits assumed): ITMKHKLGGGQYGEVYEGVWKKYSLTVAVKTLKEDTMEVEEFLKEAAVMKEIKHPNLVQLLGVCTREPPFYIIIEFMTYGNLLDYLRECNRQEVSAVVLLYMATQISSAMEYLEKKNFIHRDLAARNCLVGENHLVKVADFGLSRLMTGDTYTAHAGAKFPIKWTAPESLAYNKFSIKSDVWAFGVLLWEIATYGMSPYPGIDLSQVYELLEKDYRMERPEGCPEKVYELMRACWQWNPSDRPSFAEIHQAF
Description: Although the first of these examples uses the kinase domain of a mutant form of Abl T315I (“Abl T315I KD”), the kinase assays may use various forms of mutant and wild type enzymes, including, for example, the entire protein, the kinase domain, or a portion thereof (e.g. Abl Y393F). The kinases used in the assays may also be of varying phosphorylation states. In the c-Abl example, a mutant kinase at a zero phosphorylation state was used. c-Abl Pyruvate Kinase/Lactate Dehydrogenase Coupled Enzyme Assay
In the c-Abl Pyruvate Kinase (PK)/Lactate Dehydrogenase (LDH) Coupled Assay the protein kinase dependant phosphorylation of a substrate peptide was coupled to the oxidation of NADH. The oxidation of NADH to NAD+ was detected by monitoring a decrease in absorbance at 340 nm.
Materials: Abl substrate peptide=EAIYAAPFAKKK (SEQ ID NO: 1)—OH (Biopeptide, San Diego, Calif.); pNADH (Sigma Cat#N-8129, FW=709.4); 2M MgC12; 1M HEPES buffer, pH 7.5; Phosphoenolpyruvate (PEP) (Sigma Cat#P-7002, FW=234); Lactate dehydrogenase (LDH) (Worthington Biochemical Cat#2756); Pyruvate Kinase (PK) (Sigma Cat#P-9136); ATP (Sigma Cat#A-3377, FW=551); Greiner 384-well UV star plate; and purified and unphosphorylated T315I Abl kinase domain.
Stock Solutions: 10 mM NADH (7.09 mg/ml in miliQH2O) made fresh daily; 10 mM Abl substrate peptide (13.4 mg/ml in miliQH2O) stored at −20° C.; 100 mM HEPES buffer, pH 7.5 (5 ml 1M stock+45 ml miliQH2O); 100 mM MgCl2 (5 ml 2M MgCl2+95 ml dH2O); 100 MM PEP (23.4 mg/ml in dH2O) stored at −20° C.; 10 mM ATP (5.51 mg/ml in dH2O) stored at −20° C. (diluted 50 μl into total of 10 ml miliQH2O daily=50 μM ATP working stock); 1000 U/ml PK (U/mg varies with lot) flash-frozen under liquid N2 and stored at −80° C.; and 1000 U/ml LDH (U/mg varies with lot) flash-frozen under liquid N2 and stored at −80° C.
Standard Assay Setup for 384-well format (50 μl reaction): 300 μM NADH; 10 mM MgCl2; 2 mM PEP; 45U/ml PK; 60 U/ml LDH; 200 μM Abl substrate peptide; 2.5 μl test compound (in DMSO); 2 μg/ml Abl kinase domain; 10 μM ATP; 100 mM HEPES buffer. Positive controls contained DMSO with no test compound. Negative controls contained 5 μl of 0.5M EDTA (50 mM in the assay). The dephosphorylated form of the c-Abl T315I mutant was used in the biochemical screening assays. The kinase reaction was initiated at time t=0 by the addition of ATP.
Activity was measured by following the time-dependent loss of NADH by absorbance spectroscopy at 340 nm. The linear portion of the resulting progress curve was then analyzed by linear regression to get the activity in absorbance units/time, reported as the slope of that best fit line (moles/unit time can be calculated from using molar extinction coefficient for NADH at 340 nm, 6250M^−1 cm^−1).
Data was evaluated using the equation: Z′=1−[3*(σ++σ−)/|μ+−μ−|](Zhang, et al., 1999 J Biomol Screening 4(2) 67-73), where μ denotes the mean and σ the standard deviation. The subscript designates positive or negative controls. The Z′ score for a robust screening assay should be ≧0.50. The typical threshold=μ+−3*σ+. Any value that falls below the threshold was designated a “hit”.
Dose response was analyzed using the equation: y=min+{(max−min)/(1+10^[compound]−logIC50)}, where y is the observed initial slope, max=the slope in the absence of inhibitor, min=the slope at infinite inhibitor, and the IC50 is the [compound] that corresponds to ½ the total observed amplitude (Amplitude=max−min).
To measure modulation, activation, or inhibition of Abl KD, a test compound was added to the assay at a range of concentrations. Inhibitors may inhibit Abl KD activity at an IC50 in the micromolar range, the nanomolar range, or, for example, in the subnanomolar range.
An open-reading frame for c-Abl was amplified from a Mus musculus (mouse) cDNA library prepared from freshly harvested mouse liver using a commercially available kit (invitrogen) by PCR using the following primers: […]
The c-Abl T315I KD (kinase domain) was purified as follows. […]

Ba/F3 cells, ABL1 WT = Ba/F3 cells, ABL1 WT (Homo sapiens, UniProt P00519); assay: 96-well XTT cell survival assay, Ba/F3 ABL1 WT; assay type: cell-based; conditions: 72 hours, read-out: ABL1 WT XTT [Ba/F3] IC50
Protocol: as §1, §2, §3

| Compound | GI50 (Ba/F3 cells, ABL1 T315I) [µM] | IC50 [1] [µM] | GI50 (Ba/F3 cells, ABL1 WT) [µM] |
| --- | --- | --- | --- |
| COc1ccccc1-c1c[nH]c2ncc(-c3cccc(C(C(=O)N(C)C)N4CCNCC4)c3)cc12 (stereo not drawn) | > 1 | < 0.05 | > 1 |
| COc1ccccc1-c1c[nH]c2ncc(-c3cccc(C4(C)NC(=O)NC4=O)c3)cc12 (stereo not drawn) | > 1 | < 0.05 | < 1 |
| COc1ccccc1-c1c[nH]c2ncc(-c3cccc(C(C(=O)N(C)CCN(C)C)N4CCNCC4)c3)cc12 (stereo not drawn) | > 1 | < 0.05 | > 1 |
| COc1ccccc1-c1n[nH]c2ncc(-c3cccc(C(C)C(=O)N4CCC(O)C4)c3)cc12 (stereo not drawn) | > 1 | < 0.05 | > 1 |
| COc1ccccc1-c1n[nH]c2ncc(-c3cccc(C(C)C(=O)N4CCC(N(C)C)CC4)c3)cc12 (stereo not drawn) | < 1 | < 0.05 | < 1 |
| COc1ccccc1-c1n[nH]c2ncc(-c3cccc(C(C)C(=O)N4CCC(O)CC4)c3)cc12 (stereo not drawn) | > 1 | < 0.05 | < 1 |
| COc1ccccc1-c1n[nH]c2ncc(-c3cccc(C(C)C(=O)N4CC(O)C4)c3)cc12 (stereo not drawn) | > 1 | < 0.05 | > 1 |
| COc1ccccc1-c1c[nH]c2ncc(-c3cccc(C(O)C(=O)N(C)C4CCOCC4)c3)cc12 (stereo not drawn) | < 1 | < 0.05 | < 1 |
| COc1ccccc1-c1n[nH]c2ncc(-c3cccc(C(O)c4ncccc4F)c3)cc12 (stereo not drawn) | < 1 | < 0.05 | < 1 |
| COc1ccccc1-c1n[nH]c2ncc(-c3cccc(C(O)c4ncccc4C(F)(F)F)c3)cc12 (stereo not drawn) | > 1 | < 0.05 | > 1 |
| COc1ccccc1-c1c[nH]c2ncc(-c3cccc(C(O)c4ccccn4)c3)cc12 (stereo not drawn) | < 1 | < 0.05 | < 1 |
| COc1ccccc1-c1n[nH]c2ncc(-c3cccc(C(O)c4ccccn4)c3)cc12 (stereo not drawn) | > 1 | < 0.05 | < 1 |
| COc1ccccc1-c1c[nH]c2ncc(-c3cccc(C(O)c4ncccc4C(F)(F)F)c3)cc12 (stereo not drawn) | > 1 | < 0.05 | > 1 |
| CNC(C(=O)N(C)C)c1cccc(-c2cnc3[nH]nc(-c4ccccc4OC)c3c2)c1 (stereo not drawn) | > 1 | < 0.05 | > 1 |
| CNC(C(=O)N(C)CCN(C)C)c1cccc(-c2cnc3[nH]nc(-c4ccccc4OC)c3c2)c1 (stereo not drawn) | > 1 | < 0.05 | > 1 |
| CNC(C(=O)N1CCC(N(C)C)C1)c1cccc(-c2cnc3[nH]nc(-c4ccccc4OC)c3c2)c1 (stereo not drawn) | > 1 | < 0.05 | > 1 |
| CNC(C(=O)N(C)C(C)C)c1cccc(-c2cnc3[nH]nc(-c4ccccc4OC)c3c2)c1 (stereo not drawn) | > 1 | < 0.05 | > 1 |
| COc1ccccc1-c1n[nH]c2ncc(-c3cccc(C(C(=O)N4CCC(N(C)C)C4)N(C)C)c3)cc12 (stereo not drawn) | > 1 | 0.05 to 0.5 | > 1 |
| COc1ccccc1-c1n[nH]c2ncc(-c3cccc(C(C(=O)N(C)CCN(C)C)N(C)C)c3)cc12 (stereo not drawn) | > 1 | 0.05 to 0.5 | > 1 |
| COc1ccccc1-c1c[nH]c2ncc(-c3cccc(C(O)C(=O)N(C)C[C@@H](O)CO)c3)cc12 (stereo partly drawn) | < 1 | < 0.05 | < 1 |
| COc1ccccc1-c1n[nH]c2ncc(-c3cccc(C(O)c4nccn4C)c3)cc12 (stereo not drawn) | > 1 | < 0.05 | < 1 |
| COc1ccccc1-c1c[nH]c2ncc(-c3cccc(C(O)c4nccn4C)c3)cc12 (stereo not drawn) | < 1 | < 0.05 | < 1 |
| COc1ccccc1-c1n[nH]c2ncc(-c3cncc(C(O)C(=O)N(C)C)c3)cc12 (stereo not drawn) | < 1 | < 0.05 | < 1 |
| COc1ccccc1-c1c[nH]c2ncc(-c3cccc(C(O)C(=O)N(C)CC4CCCO4)c3)cc12 (stereo not drawn) | < 1 | < 0.05 | < 1 |
| COc1ccccc1-c1c[nH]c2ncc(-c3cccc(C(O)C(=O)N(C)CC4CCN(C)CC4)c3)cc12 (stereo not drawn) | < 1 | < 0.05 | < 1 |
| COc1ccccc1-c1c[nH]c2ncc(-c3cncc(C(O)C(=O)N(C)Cc4ccncc4)c3)cc12 (stereo not drawn) | > 1 | < 0.05 | > 1 |
| COc1ccccc1-c1c[nH]c2ncc(-c3cccc(C(O)C(=O)N(C)CC4CCOCC4)c3)cc12 (stereo not drawn) | < 1 | < 0.05 | < 1 |
